Laboratory results from ChEMBL document CHEMBL1149222, “Synthesis and in vitro antimycobacterial activity of novel 3-(1H-pyrrol-1-yl)-2-oxazolidinone analogues of PNU-100480” (2004).
Values after ≈ are worked out from the molar mass of the structure shown.

Key:
Assay type in all cases: functional
[1] = tested on: Mycobacterium tuberculosis; experiment: In vitro anti-mycobacterial activity against pirazynamide resistant Mycobacterium tuberculosis ATCC 35828 determined by the MTT method
[2] = tested on: Mycobacterium tuberculosis; experiment: In vitro anti-mycobacterial activity against ethambutol resistant Mycobacterium tuberculosis ATCC 35837 determined by the MTT method
[3] = tested on: Mycobacterium tuberculosis; experiment: In vitro anti-mycobacterial activity against streptomycin resistant Mycobacterium tuberculosis ATCC 35820 determined by the MTT method
[4] = tested on: Mycobacterium tuberculosis; experiment: In vitro anti-mycobacterial activity against pirazynamide resistant Mycobacterium tuberculosis ATCC 35828 was determined
[5] = tested on: Mycobacterium tuberculosis; experiment: In vitro anti-mycobacterial activity against ethambutol resistant Mycobacterium tuberculosis ATCC 35837 was determined
[6] = tested on: Mycobacterium tuberculosis; experiment: In vitro anti-mycobacterial activity against streptomycin resistant Mycobacterium tuberculosis ATCC 35820 was determined

SMILES | MIC90 [1] | MIC90 [2] | MIC90 [3] | MIC50 [4] | MIC50 [5] | MIC50 [6]
CC(=O)NC[C@H]1CN(c2ccn(-c3cccc(F)c3)c2)C(=O)O1 | 63.9 µM (≈ 20.3 µg/mL) | 24.9 µM (≈ 7.9 µg/mL) | > 100 µM | 18.4 µM (≈ 5.84 µg/mL) | 7 µM (≈ 2.22 µg/mL) | 0.9 µM (≈ 0.286 µg/mL)
CC(=O)NC[C@H]1CN(c2ccn(-c3ccccc3)c2)C(=O)O1 | > 100 µM | 100 µM (≈ 29.9 µg/mL) | ≥ 100 µM | 50.3 µM (≈ 15.1 µg/mL) | 23.8 µM (≈ 7.12 µg/mL) | 5.6 µM (≈ 1.68 µg/mL)
CC(=O)NC[C@H]1CN(c2ccn(N3CCOCC3)c2)C(=O)O1 | – | – | – | > 100 µM | > 100 µM | > 100 µM
CC(=O)NC[C@H]1CN(c2ccn(-c3ccccc3F)c2)C(=O)O1 | 58.7 µM (≈ 18.6 µg/mL) | 23.9 µM (≈ 7.58 µg/mL) | 45 µM (≈ 14.3 µg/mL) | 10 µM (≈ 3.17 µg/mL) | 7 µM (≈ 2.22 µg/mL) | 1.1 µM (≈ 0.349 µg/mL)
CC(=O)NC[C@H]1CN(c2ccn(-c3ccc(N4CCOCC4)c(F)c3)c2)C(=O)O1 | > 100 µM | – | > 100 µM | > 100 µM | 63.5 µM (≈ 25.6 µg/mL) | 4.9 µM (≈ 1.97 µg/mL)
CC(=O)NC[C@H]1CN(c2ccn(-c3ccc(F)cc3)c2)C(=O)O1 | 73.7 µM (≈ 23.4 µg/mL) | 56.6 µM (≈ 18 µg/mL) | 39.9 µM (≈ 12.7 µg/mL) | 21.5 µM (≈ 6.82 µg/mL) | 13.5 µM (≈ 4.28 µg/mL) | 0.8 µM (≈ 0.254 µg/mL)
NNC(=O)c1ccncc1 [ISONIAZID] | > 100 µM | 13 µM (≈ 1.78 µg/mL) | > 100 µM | 0.1 µM (≈ 0.0137 µg/mL) | 0.2 µM (≈ 0.0274 µg/mL) | 1.3 µM (≈ 0.178 µg/mL)
CC(=O)NC[C@H]1CN(c2ccc(N3CCSCC3)c(F)c2)C(=O)O1 [SUTEZOLID] | 0.7 µM (≈ 0.247 µg/mL) | 0.3 µM (≈ 0.106 µg/mL) | 0.4 µM (≈ 0.141 µg/mL) | 0.1 µM (≈ 0.0353 µg/mL) | 0.06 µM (≈ 0.0212 µg/mL) | 5.6 µM (≈ 1.98 µg/mL)
